Measured values from US20070048234A1, “COMPOSITIONS AND METHODS FOR TREATING ACNE” (REVANCE THERAPEUTICS, INC., priority 2005, published 2007).
Where a name gives a salt, the structure may show the parent alone.

Assays:
[1] = topical application; cited from earlier work
[2] = when topically applied; cited from earlier work
[3] = test system: propionibacterium acnes (P. Acnes); settings: compared with other medications on the market, prescription or otherwise; cited from earlier work
[4] = test system: acne lesion; experiment: topical multi-step treatment of an acne lesion (vasoconstricting composition, then anti-acne agent); type: in vivo; settings: upon topical application of the vasoconstricting composition to the acne lesion
Text: (§1) This example provides a two step treatment for acne. The first step involves topically applying a vasoconstricting composition to the acne lesion to be treated. Suitable vasoconstricting compositions include tetrahydrozoline HCl 0.05%, naphazoline HCl 0.03%, or oxymetazoline HCl 0.025% in an aqueous base containing HPC to increase the viscosity for ease of application. Upon application of the vasoconstricting composition, the redness and swelling of the acne lesion diminishes, making the acne lesion less noticeable. After about 5 minutes, a second step is performed which involves topically applying 5% benzoyl peroxide 5% in an oil-in water moisturizer base. In this example, the benzoyl peroxide 5% is tinted to match the skin tone of the user, but this tinting is optional.
as §1, with “three-step nighttime” for “two step”, “peroxide” for “peroxide 5%”, “The acne lesion is then covered with a patch that includes silicone on” for “In this example,”, “skin-side” for “benzoyl peroxide 5% is tinted to match the skin tone”, “patch. The patch remains in place overnight and” for “user, but this tinting”, “removed in the morning.” for “optional.”
The following night, the three-step acne treatment is repeated.
This example provides a three-step acne treatment that is suitable for daytime use. The first step involves topically applying a vasoconstricting composition to the acne lesion to be treated. Suitable vasoconstricting compositions include tetrahydrozoline HCl 0.05%, naphazoline HCl 0.03%, or oxymetazoline HCl 0.025% in an aqueous base containing HPC to increase the viscosity for ease of application. […]

Compound: O=C(OOC(=O)c1ccccc1)c1ccccc1 [benzoyl peroxide]
- flux into the skin [1]: high
- share of the population that experiences skin allergies [2]: about 10%
- kills propionibacterium acnes (P. Acnes) [3]: better than any other medication on the market

Compound: Cc1cc(C(C)(C)C)c(O)c(C)c1CC1=NCCN1 [oxymetazoline HCl 0.025%, oxymetazoline HCl]
- redness and swelling of the acne lesion [4]: diminishes

Compound: c1ccc2c(CC3=NCCN3)cccc2c1 [naphazoline HCl 0.03%, naphazoline HCl]
- redness and swelling of the acne lesion [4]: diminishes

Compound: c1ccc2c(c1)CCCC2C1=NCCN1 (stereo not drawn) [tetrahydrozoline HCl 0.05%, tetrahydrozoline HCl]
- redness and swelling of the acne lesion [4]: diminishes
